# Test system: Artemia salina
# Test: Toxicity in Artemia salina assessed as inhibition of egg hatching after 48 hrs
# Format: organism-based
row,Structure (SMILES),IC50 [µg/mL]
1,C[C@H]1O[C@H](Oc2c(-c3cc(O)c(O)c(O)c3)oc3cc(O)cc(O)c3c2=O)[C@@H](OC(=O)c2cc(O)c(O)c(O)c2)[C@@H](O)[C@@H]1O,75
2,COc1cc(O)c2c(=O)c(O[C@H]3O[C@H](C)[C@@H](O)[C@H](OC(=O)c4cc(O)c(O)c(O)c4)[C@@H]3O)c(-c3cc(O)c(O)c(O)c3)oc2c1,50
3,COc1cc(O)c2c(=O)c(O[C@H]3O[C@H](C)[C@@H](O)[C@H](O)[C@@H]3OC(=O)c3cc(O)c(O)c(O)c3)c(-c3cc(O)c(O)c(O)c3)oc2c1,89
4,C[C@H]1O[C@H](Oc2c(-c3cc(O)c(O)c(O)c3)oc3cc(O)cc(O)c3c2=O)[C@@H](O)[C@@H](OC(=O)c2cc(O)c(O)c(O)c2)[C@@H]1O,64

# — ChEMBL document CHEMBL1142619, “Three new flavonol galloylglycosides from leaves of Acacia confusa” (J Nat Prod, 2000)
